Results published in publication PMC7179450, “Primary Human Hepatocytes, But not HepG2 or Balb/c 3T3 Cells, Efficiently Metabolize Salinomycin and Are Resistant to Its Cytotoxicity” (Molecules, 2020).
Several values for one entry are separate records, joined by “and”; a condition that tells them apart may be missing. Equal values may be shown once. Read-outs that look alike come from different tables or passages of the source.

How the values were obtained:
[1] = system: primary human hepatocytes (PHH); experiment: TPC assay (total protein content) in primary human hepatocytes; assay type: cell-based; settings: Hepatocyte, mean ± SEM, n = 3, read-out: EC50 (effective concentration)
Method: Cryopreserved PHH were purchased from the Primacyt GmbH (Schwerin, Germany). Two different lots were chosen based on CYP activity. The donor was a person. The post-thaw viability was 94.6% for lot HH160531 (used in two repetitions) and 85.0% for lot HH130805. The initial cell viability was determined with the trypan blue exclusion test. The cells were thawed and purified using the Plating and Thawing Kit (Primacyt GmbH). Purified hepatocytes were resuspended in Hepatocyte Plating Medium (Primacyt GmbH) and seeded on collagen-coated 96-well plates at a density of 9 × 10^5 cell/mL and incubated at 37 °C with 5% CO2. After 6 h of incubation, the medium was removed and the cells were washed with PBS. Then Human Hepatocyte Maintenance Medium (HHMM) (Primacyt GmbH) with the studied drugs was added to hepatocytes (100 µL/well). The culture conditions were kept according to the manufacturer’s protocol.
The concentration ranges of the drugs were chosen according to their solubility and their plasma level. Each drug was dissolved in DMSO. […] The cytotoxicity was assessed after 24 and 48 h of exposure of cell lines or after 12 and 24 h exposure of PHH. […]
The assay was based on staining total cellular protein [14]. […] The absorbance was measured at 595 nm in a microplate reader using blank as a reference. Cytotoxicity was expressed as a percentage of the negative control (0.1% or 0.2% DMSO).

[2] = system: Balb/c 3T3 cells; experiment: MTT assay, cytotoxicity in Balb/c 3T3; assay type: cell-based; settings: Mus musculus, BALB/c3T3, Balb/c 3T3, MTT, mean ± SEM, n = 3, read-out: EC50 (effective concentration)
Method: The HepG2 cell line was purchased from the American Type Culture Collection (ATCC® HB-8065™). The cells were cultured in Minimum Essential Medium Eagle (MEME) (Sigma–Aldrich Co. (St. Louis, MO, USA)). Normal murine embryonic fibroblasts, Balb/c 3T3 clone A31 cell line (gift from Department of Swine Diseases of the National Veterinary Research Institute in Pulawy) was cultured in Dulbecco’s Modified Eagle’s Medium (DMEM) (Invitrogen Corporations (Paisley, UK)). The media were supplemented with 10% BCS (Balb/c 3T3), 10% FBS (HepG2), 1% L-glutamine, and 1% antibiotic solution. The cells were maintained in 75 cm^2 cell culture flasks in humidified incubator at 37 °C, in an atmosphere of 5% CO2. […] The initial cell viability was determined with the trypan blue exclusion test. […]
The concentration ranges of the drugs were chosen according to their solubility and their plasma level. […] The cytotoxicity was assessed after 24 and 48 h of exposure of cell lines or after 12 and 24 h exposure of PHH. […]
(§1) The metabolic activity of living cells was assessed by measuring the activity of dehydrogenases. […] The plate was shaken for 15 min at room temperature and transferred to a microplate reader to measure the absorbance at 570 nm, using a blank as a reference. Cytotoxicity was expressed as a percentage of the negative control (0.1% or 0.2% DMSO).

[3] = Cytotoxicity battery in human hepatoma cells; assay type: cell-based; settings: HepG2 human hepatoma cells, after 24 h, read-out: cytotoxic concentrations
Method: The concentration ranges of the drugs were chosen according to their solubility and their plasma level. Each drug was dissolved in DMSO. The final concentration of DMSO was 0.1% or 0.2% in the medium for both samples and corresponding controls. […] All drug solutions in medium were freshly prepared and protected from light. SAL was tested in seven concentrations from 0.39 to 25 µg/mL. Tiamulin was added in two concentrations (1 and 10 µg/mL) or just one concentration (1 µg/mL) to cell lines or human hepatocytes, respectively. Prednisolone was tested in one concentration—1 µg/mL independent of the type of cells. […] The cytotoxicity was assessed after 24 and 48 h of exposure of cell lines or after 12 and 24 h exposure of PHH. […]
as §1
The assay, based on staining of living cells by neutral red (NR), was performed according to the protocol described by Borenfreund and Puerner. […] After 10 min of shaking, the absorbance of the dissolved NR was measured at 540 nm using a blank as a reference. […]

[4] = system: rabbits; settings: cited from earlier work
[5] = rat, in vivo; cited from earlier work
[6] = in vivo; cited from earlier work

Structure (SMILES): CC[C@@H](C(=O)[C@@H](C)[C@@H](O)[C@H](C)[C@@H]1O[C@@H]([C@@H](CC)C(=O)O)CC[C@@H]1C)[C@H]1O[C@]2(C=C[C@@H](O)[C@]3(CC[C@@](C)([C@H]4CC[C@](O)(CC)[C@H](C)O4)O3)O2)[C@H](C)C[C@@H]1C [SAL, salinomycin]
- EC50 ([1]; 12 h exposure): > 25 µg/mL
- EC50 ([1]; 24 h exposure): > 25 µg/mL
- EC50 ([2]; 24 h exposure): 10.4 ± 1.4 µg/mL
- EC50 ([2]; 48 h exposure): 4.3 ± 0.9 µg/mL
- EC50 at 24 h [3]: 800 nM to 20.5 µM and 0.6 µg/mL to 15.4 µg/mL
- LD50 [4]: 21 mg/kg b.w.
- unchanged SAL in excreta, share of administered dose [5]: 2%
- unchanged SAL in excreta, share of administered dose [6]: 2%
